Values of other authors in patent US20110190376A1, “RNAi-RELATED INHIBITION OF TNFa SIGNALING PATHWAY FOR TREATMENT OF MACULAR EDEMA” (ALCON RESEARCH, LTD., priority 2007, published 2011).

Tests used:
macular edema = conditions: patients also suffering from posterior uveitis
[1] = test system: refractory chronic cystoid macular edema (CME)
[2] = test system: severe diabetic macular edema; conditions: eyes that had severe diabetic macular edema

In the case of infliximab, the “resolution of macular edema” value (macular edema) is listed as “caused macular edema to resolve in two patients”, the “eyes with complete regression of refractory chronic cystoid macular edema” value [1] is listed as 8 of 14 and the “eyes with anatomic and functional improvement” value [2] is listed as “four of six”.
